In US20240239788A1, “SMALL MOLECULE INHIBITORS OF KRAS G12D MUTANT” (Merck Sharp & Dohme LLC, priority 2021, published 2024):
Read-outs that look alike come from different tables or passages of the source.

Experiments:
[1] = system: AsPC-1 cells containing homozygous KRAS-G12D activating mutation; assay: Cellular phospho-ERK assay (Examples 1a-106); format: cell-based; conditions: read-out: IC50 (nM) pERK (Cell)
Excerpt: 5% CO? overnight. […] Assay plates were read on a EnVision Multimode Plate Reader (PerkinElmer) and the ratio of p-Erk vs total Erk in each well was used as the final readout.

[2] = target: KRAS protein containing G12D mutation (Homo sapiens (Human), UniProt P01116, G12D); assay: SOS-catalyzed nucleotide exchange assay (GNE), TR-FRET; format: biochemical; conditions: biotinylated KRAS G12D, SOS and GTP, 60-minute incubation
Protocol: Compounds are added to this complex and then after a 60-minute incubation time the mixture is treated with SOS and unlabeled GTP. Small molecule inhibitors stabilize the Bodipy-GDP complex whereas the untreated protein rapidly exchanges Bodipy-GDP for unlabeled GTP resulting in reduced TR-FRET signal.
This solution is referred to as biotinylated KRAS G12D stock solution.

[3] = Homo sapiens, ASPC1, 2 h, AsPC-1 cells, 2 hours, ratio of p-Erk vs total Erk
[4] = AsPC-1 cells, 2 hours, ratio of p-Erk vs total Erk

Sequence of KRAS protein containing G12D mutation (P01116 other isoform, or with tags, fused parts or gaps G12D (already in the parent)): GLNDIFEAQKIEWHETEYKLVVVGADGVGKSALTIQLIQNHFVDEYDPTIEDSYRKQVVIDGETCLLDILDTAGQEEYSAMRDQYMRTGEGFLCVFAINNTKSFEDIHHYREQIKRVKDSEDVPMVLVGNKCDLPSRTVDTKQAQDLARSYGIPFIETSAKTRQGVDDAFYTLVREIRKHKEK

Q: What does the source list for `Cc1cc2[nH]ncc2c(C2Cc3nc(OCC4(CN5CC[C@@H](F)C5)CC4)nc(N4C[C@H]5CC[C@@](C)(C4)N5)c3CO2)c1C(F)(F)F` (stereo partly drawn) [Ex. 97, 2-((1-(((R)-3-fluoropyrrolidin-1-yl)methyl)cyclopropyl)methoxy)-7-(6-methyl-5-(trifluoromethyl)-1H-indazol-4-yl)-4-((1S,5R)-1-methyl-3,8-diazabicyclo[3.2.1]octan-3-yl)-7,8-dihydro-5H-pyrano[4,3-d]pyrimidine]?
A: IC50 [1, 3]: 24300 nM; IC50 [2]: 3950 nM

Q: Which results are given for `Cc1c(Cl)cc2[nH]nc(Cl)c2c1-c1c(F)cc2c(N3C[C@H]4CC[C@@](C)(C3)N4)nc(OCC3(CN4CC[C@@H](F)C4)CC3)nc2c1F` [Ex 78, 7-(3,6-dichloro-5-methyl-1H-indazol-4-yl)-6,8-difluoro-2-((1-(((R)-3-fluoropyrrolidin-1-yl)methyl)cyclopropyl)methoxy)-4-((1S,5R)-1-methyl-3,8-diazabicyclo[3.2.1]octan-3-yl)quinazoline]?
A: IC50 [1, 3]: 6370 nM; IC50 [2]: 1630 nM

Q: Which IC50 [1, 3] does the source give for `C#Cc1cccc2cc(O)cc(-c3c(F)cc4c(N5C[C@H]6CC[C@@](C)(C5)N6)nc(OC[C@]5(CO)CC5(F)F)nc4c3F)c12` (single isomer, unassigned) [Ex. 90] here?
A: 564 nM

Q: What about the IC50 [2] of the same molecule?
A: 0.565 nM

Q: `CN(C)CC1(COc2nc(N3CC4CC(C)(O)C(C3)N4)c3cc(F)c(-c4cc(O)cc5ccccc45)c(F)c3n2)CC1` (stereo not shown) [Example 27, 3-(2-((1-((dimethylamino)meth-yl)cyclopro-pyl)methoxy)-6,8-difluoro-7-(3-hydroxynaphthalen-1-yl)quinazolin-4-yl)-6-methyl-3,8-diazabicyclo [3.2.1]octan-6-ol] was tested. Which IC50 [1, 3] did it give?
A: 22500 nM

Q: What about the IC50 [2] of the same molecule?
A: 496 nM

Q: How did the IC50 [1, 4] turn out when `Oc1cc(-c2c(F)cc3c(N4CC5CC(F)C(C4)N5)nc(OCC4(CN5CCOCC5)CC4)nc3c2F)c2ccccc2c1` (single isomer, unassigned) [Ex. 3b, 4-(6,8-difluoro-4-(6-fluoro-3,8-diazabicyclo[3.2.1]octan-3-yl)-2-((1-(morpholinomethyl)cyclopropyl)methoxy)quinazolin-7-yl)naphthalen-2-ol] was run?
A: 8240 nM

Q: What about the IC50 [2] of the same molecule?
A: 2160 nM

Q: With `Nc1nc2c(F)ccc(-c3c(Cl)cc4c(N5CC6CCC(C5)N6)nc(OCC5(CN6CCOCC6)CC5)nc4c3F)c2s1` [Example 54, 7-(4-(3,8-diazabicyclo[3.2.1]octan-3-yl)-6-chloro-8-fluoro-2-((1-(morpholinomethyl)cyclopropyl)methoxy)quinazolin-7-yl)-4-fluorobenzo[d]thiazol-2-amine] as the molecule, how does the IC50 [1, 3] read?
A: 14100 nM

Q: What about the IC50 [2] of the same molecule?
A: 2650 nM

Q: For `CN(C)CC1(COc2nc(N3C[C@H]4CC[C@@H](C3)N4)c3cc(Cl)c(-c4cccc5cccc(C#N)c45)c(F)c3n2)CC1` [Example 60, 8-(4-((1R,5S)-3,8-diazabicyclo[3.2.1]octan-3-yl)-6-chloro-2-((1-((dimethylamino)methyl)cyclopropyl)methoxy)-8-fluoroquinazolin-7-yl)-1-naphthonitrile], which IC50 ([1]; Homo sapiens, ASPC1, 2 h) is on record?
A: 8760 nM

Q: And the IC50 [2]?
A: 1590 nM

Q: For `Cc1cc2[nH]nc(C)c2c(-c2c(F)cc3c(N4C[C@H]5CC[C@@](C)(C4)N5)nc(OC[C@@H]4C[C@@H](F)CN4C)nc3c2F)c1Cl` [Ex 77, 7-(5-chloro-3,6-dimethyl-1H-indazol-4-yl)-6,8-difluoro-2-(((2S,4R)-4-fluoro-1-methylpyrrolidin-2-yl)methoxy)-4-((1S,5R)-1-methyl-3,8-diazabicyclo[3.2.1]octan-3-yl)quinazoline], which IC50 [1, 3] is on record?
A: 5350 nM

Q: What about the IC50 [2] of the same molecule?
A: 792 nM

Q: For `C=C[C@H]1[C@@H]2CC[C@@H](CN2)N1c1nc(OCC2(CN(C)C)CC2)nc2c(F)c(-c3cc(O)cc4ccccc34)c(F)cc12` [Ex. 6a, 4-(2-((1-((dimethylamino)methyl)cyclopropyl)methoxy)-6,8-difluoro-4-((1S,3S,4S)-3-vinyl-2,5-diazabicyclo[2.2.2]octan-2-yl)quinazolin-7-yl)naphthalen-2-ol], which IC50 [1, 3] is on record?
A: 13300 nM

Q: What about the IC50 [2] of the same molecule?
A: 159 nM

Q: `CN(C)CC1(COc2nc(N3CC4CC(O)C(C3)N4)c3cc(Cl)c(-c4cc(O)cc5ccccc45)c(F)c3n2)CC1` (single isomer, unassigned) [Example 22a, 3-(6-chloro-2-((1-((dimethyl-amino)methyl)cyclo-propy)methoxy)-8-fluoro-7-(3-hydroxy-naphthalen-1-yl)quinazolin-4-yl)-3,8-diazabicyclo[3.2.1]oc tan-6-ol] was tested. Which IC50 [1, 4] did it give?
A: 50800 nM

Q: What about the IC50 [2] of the same molecule?
A: 5090 nM

Q: With `Oc1cc(-c2c(F)cc3c(N4CC5CCC(C4)N5)nc(N4CC5(CCCN5)C4)nc3c2F)c2ccccc2c1` [Example 14, 4-(4-(3.8-diazabicyclo[3.2.1]octan-3-yl)-6,8-difluoro-2-(2,5-diazaspiro[3.4]octan-2-yl)quinazolin-7-yl)naphthalen-2-ol] as the molecule, how does the IC50 [1, 3] read?
A: 24000 nM

Q: What about the IC50 [2] of the same molecule?
A: 1570 nM

Q: Which IC50 [1, 3] does the source give for `CN(C)CC1(COc2nc(N3C[C@H]4N[C@@](C)(C[C@@H]4O)C3)c3cc(Cl)c(-c4cc(O)cc5ccccc45)c(F)c3n2)CC1` [Example 44, (1S,5R,6S)-3-(6-chloro-2-((1-((dimethylamino)methyl)cyclopropyl)methoxy)-8-fluoro-7-(3-hydroxynaphthalen-1-yl)quinazolin-4-yl)-1-methyl-3,8-diazabicyclo [3.2.1]octan-6-ol] here?
A: 13900 nM

Q: And the IC50 [2]?
A: 1160 nM

Q: Which IC50 [1, 3] does the source give for `NC(=O)C1(COc2nc(N3CC4CCC(C3)N4)c3cc(F)c(-c4cc(O)cc5ccccc45)c(F)c3n2)CNC1` [Example 15, 3-(((4-(3.8-diazabicyclo[3.2.1]octan-3-yl)-6,8-difluoro-7-(3-hydroxynaphthalen-1-yl)quinazolin-2-yl)oxy)methyl)azetidine-3-carboxamide] here?
A: 50800 nM

Q: And the IC50 [2]?
A: 2140 nM

Q: Which results are given for `Fc1cc2c(N3CC4CCC(C3)N4)nc(OCC3(CN4CCOCC4)CC3)nc2c(F)c1-c1cccc2sncc12` [Example 50, 4-((1-(((7-(benzo[d]isothiazol-4-yl)-4-(3,8-diazabicyclo[3.2.1]octan-3-yl)-6,8-difluoroquinazolin-2-yl)oxy)methyl)cyclopropyl)methyl) morpholine]?
A: IC50 [1, 3]: 20300 nM; IC50 [2]: 5180 nM

Q: `OCC1(COc2nc(N3CC4CCC(C3)N4)c3cc(F)c(-c4cc(O)cc5ccccc45)c(F)c3n2)CNC1` [Ex. 4, 4-(4-(3.8-diazabicyclo[3.2.1]octan-3-yl)-6,8-difluoro-2-((3-(hydroxymethyl)azetidin-3-yl)methoxy)quinazolin-7-yl)naphthalen-2-ol] was tested. Which IC50 [1, 4] did it give?
A: 50800 nM

Q: And the IC50 [2]?
A: 169 nM

Q: Which IC50 [1, 3] does the source give for `COCC12CCC(CN(c3nc(OCC4(CN(C)C)CC4)nc4c(F)c(-c5cc(O)cc6ccccc56)c(Cl)cc34)C1)N2` (stereo not shown) [Example 37, 4-(6-chloro-2-((1-((dimethylamino)meth-yl)cyclopro-pyl)methoxy)-8-fluoro-4-(1-(methoxy-methyl)-3,8-diazabicyclo[3.2.1]oc-tan-3-yl)quinazolin-7-yl)naphthalen-2-ol] here?
A: 16700 nM

Q: What about the IC50 [2] of the same molecule?
A: 571 nM

Q: Which results are given for `CC[C@H]1[C@@H]2CC[C@@H](CN2)N1c1nc(OCC2(CN(C)C)CC2)nc2c(F)c(-c3cc(O)cc4ccccc34)c(F)cc12` [Example 9, 4-(2-((1-((dimethylamino)methyl)cyclopropyl)methoxy)-4-((1S,3S,4S)-3-ethyl-2,5-diazabicyclo[2.2.2]octan-2-yl)-6,8-difluoroquinazolin-7-yl)naphthalen-2-ol]?
A: IC50 [1, 3]: 13600 nM; IC50 [2]: 1330 nM
